Assays:
[1] = molecular target: T1, GST-ASPG (human ASPG, 60 kDa Lysophospholipase) (Homo sapiens, UniProt Q86U10); assay: Nessler ammonia assay, steady-state inhibition kinetics; type: biochemical
T1 construct: full-length cDNA in pGEX-4T3, N-terminal GST tag kept, E. coli BL21, glutathione Sepharose
T1 sequence (Q86U10 1-573): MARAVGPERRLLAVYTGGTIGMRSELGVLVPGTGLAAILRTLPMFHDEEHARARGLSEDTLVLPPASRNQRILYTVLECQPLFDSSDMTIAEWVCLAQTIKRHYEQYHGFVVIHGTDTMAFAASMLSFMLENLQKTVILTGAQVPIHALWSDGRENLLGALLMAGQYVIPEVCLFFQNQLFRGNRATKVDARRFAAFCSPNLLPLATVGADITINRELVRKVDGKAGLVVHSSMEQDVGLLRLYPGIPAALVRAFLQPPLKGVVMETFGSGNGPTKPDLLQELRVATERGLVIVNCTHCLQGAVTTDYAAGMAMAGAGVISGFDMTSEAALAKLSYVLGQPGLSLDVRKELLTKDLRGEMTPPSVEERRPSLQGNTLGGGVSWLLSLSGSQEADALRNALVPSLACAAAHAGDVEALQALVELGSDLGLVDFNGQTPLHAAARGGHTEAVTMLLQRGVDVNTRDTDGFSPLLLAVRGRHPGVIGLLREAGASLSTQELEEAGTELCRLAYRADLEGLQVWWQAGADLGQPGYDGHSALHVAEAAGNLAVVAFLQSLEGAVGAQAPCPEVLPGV

[2] = molecular target: T1, GST-ASPG (human ASPG, 60 kDa Lysophospholipase); assay: PAF acetylhydrolase assay kit (2-thio PAF, DTNB, […] nm); type: biochemical; conditions: 200 µM 2-thio-PAF, Tris/HCl pH 7.2, 10 min pre-incubation
[3] = substrate: NC(=O)C[C@H](N)C(=O)O; assay: Nessler ammonia assay, Hill fit; type: biochemical, Homo sapiens; conditions: Tris/HCl pH 8.6, 37 °C, 30 min, 3-39 mM substrate, sigmoidal kinetics, Hill slope 6.9

NC(=O)C[C@@H](N)C(=O)O [D-asparagine]
Ki [1]: 71 mM
residual PAF-AH activity at 40 and 200 mM [2]: PAF-AH activity of GST-ASPG was also significantly inhibited by D-asparagine

B1: GST-ASPG (human ASPG, 60 kDa Lysophospholipase) (Homo sapiens) (protein)
chain: T1 sequence (Q86U10 1-573)
notes: full-length cDNA in pGEX-4T3, N-terminal GST tag kept, E. coli BL21, glutathione Sepharose
K0.5 [3]: 13 mM

Reference: publication PMC5443537, “The human asparaginase enzyme (ASPG) inhibits growth in leukemic cells” (PLoS ONE, 2017)
